Columns and labels:
[1] = target: Histamine H3 receptor (Homo sapiens) (UniProt Q9Y5N1); settings: Compound concentration 10.0 uM
Renin (Homo sapiens) = Renin (Homo sapiens) (UniProt P00797); test: RENIN (HU) Eurofins-Panlabs selectivity data (BI); settings: Compound concentration 10.0 uM
[2] = target: T1, Thromboxane-A synthase (Homo sapiens) (UniProt P24557); test: THRO SYN(HU) Eurofins-Panlabs selectivity data (BI)
T1 sequence (whole entry): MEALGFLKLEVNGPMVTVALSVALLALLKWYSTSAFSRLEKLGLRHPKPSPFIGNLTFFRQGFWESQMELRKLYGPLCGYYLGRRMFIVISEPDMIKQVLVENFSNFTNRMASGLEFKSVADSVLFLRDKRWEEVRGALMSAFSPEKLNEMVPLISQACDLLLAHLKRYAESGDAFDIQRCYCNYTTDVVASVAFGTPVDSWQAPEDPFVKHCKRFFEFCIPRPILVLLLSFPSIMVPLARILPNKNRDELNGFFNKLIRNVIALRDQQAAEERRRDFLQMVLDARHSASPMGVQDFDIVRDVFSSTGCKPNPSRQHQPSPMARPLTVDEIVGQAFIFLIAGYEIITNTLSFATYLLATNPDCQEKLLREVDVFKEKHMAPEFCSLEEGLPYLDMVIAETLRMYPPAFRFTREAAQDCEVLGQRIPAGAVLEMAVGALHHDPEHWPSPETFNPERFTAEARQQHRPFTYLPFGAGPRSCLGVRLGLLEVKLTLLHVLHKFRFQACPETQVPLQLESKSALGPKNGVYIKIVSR

[3] = target: Phosphatidylinositol 4,5-bisphosphate 3-kinase catalytic subunit alpha isoform (Homo sapiens) (UniProt P42336); settings: Compound concentration 1000.0 nM
[4] = target: Wee1-like protein kinase 2 (Homo sapiens) (UniProt P0C1S8); settings: Compound concentration 1000.0 nM
[5] = system: Hepatocyte growth factor receptor (Homo sapiens), P08581 [M1250T]; settings: Compound concentration 1000.0 nM
[6] = target: RAC-alpha serine/threonine-protein kinase (Homo sapiens) (UniProt P31749); settings: Compound concentration 1000.0 nM
[7] = target: Vascular endothelial growth factor receptor 2 (Homo sapiens) (UniProt P35968); settings: Compound concentration 1000.0 nM
[8] = target: Dual specificity mitogen-activated protein kinase kinase 4 (Homo sapiens) (UniProt P45985); settings: Compound concentration 1000.0 nM
[9] = target: Ephrin type-A receptor 6 (Homo sapiens) (UniProt Q9UF33); settings: Compound concentration 1000.0 nM
[10] = system: Epidermal growth factor receptor (Homo sapiens), P00533 [L858R]; settings: Compound concentration 1000.0 nM
[11] = target: Serine/threonine-protein kinase BRSK1 (Homo sapiens) (UniProt Q8TDC3); settings: Compound concentration 1000.0 nM
[12] = target: Serine/threonine-protein kinase PknB (Mycobacterium tuberculosis) (UniProt P9WI81); settings: Compound concentration 1000.0 nM
[13] = target: Serine/threonine-protein kinase Nek1 (Homo sapiens) (UniProt Q96PY6); settings: Compound concentration 1000.0 nM
[14] = target: Serine/threonine-protein kinase Sgk1 (Homo sapiens) (UniProt O00141); settings: Compound concentration 1000.0 nM
[15] = system: Tyrosine-protein kinase ABL1 (Homo sapiens), P00519 [E255K]; settings: Compound concentration 1000.0 nM
[16] = target: Mitogen-activated protein kinase kinase kinase kinase 5 (Homo sapiens) (UniProt Q9Y4K4); settings: Compound concentration 1000.0 nM
[17] = target: Ephrin type-A receptor 1 (Homo sapiens) (UniProt P21709); settings: Compound concentration 1000.0 nM
[18] = target: Mitogen-activated protein kinase kinase kinase 1 (Homo sapiens) (UniProt Q13233); settings: Compound concentration 1000.0 nM
[19] = target: Delta-type opioid receptor (Homo sapiens) (UniProt P41143); settings: Compound concentration 10.0 uM
[20] = target: Serine/threonine-protein kinase Nek10 (Homo sapiens) (UniProt Q6ZWH5); settings: Compound concentration 1000.0 nM
[21] = target: Cyclin-dependent kinase 4 (Homo sapiens) (UniProt P11802); settings: Compound concentration 1000.0 nM
[22] = system: Epidermal growth factor receptor (Homo sapiens), P00533 [UNDEFINED MUTATION]; settings: Compound concentration 1000.0 nM
[23] = target: Mitogen-activated protein kinase kinase kinase kinase 3 (Homo sapiens) (UniProt Q8IVH8); settings: Compound concentration 1000.0 nM
[24] = target: Mitogen-activated protein kinase kinase kinase 15 (Homo sapiens) (UniProt Q6ZN16); settings: Compound concentration 1000.0 nM
[25] = target: RAC-gamma serine/threonine-protein kinase (Homo sapiens) (UniProt Q9Y243); settings: Compound concentration 1000.0 nM
[26] = target: Aurora kinase A (Homo sapiens) (UniProt O14965); settings: Compound concentration 1000.0 nM
[27] = target: Ephrin type-A receptor 5 (Homo sapiens) (UniProt P54756); settings: Compound concentration 1000.0 nM
[28] = target: Mitogen-activated protein kinase kinase kinase 11 (Homo sapiens) (UniProt Q16584); settings: Compound concentration 1000.0 nM
[29] = target: Mitogen-activated protein kinase kinase kinase 14 (Homo sapiens) (UniProt Q99558); settings: Compound concentration 1000.0 nM
[30] = target: Serine/threonine-protein kinase PLK3 (Homo sapiens) (UniProt Q9H4B4); settings: Compound concentration 1000.0 nM
[31] = target: Activated CDC42 kinase 1 (Homo sapiens) (UniProt Q07912); settings: Compound concentration 1000.0 nM

Chain of Serine/threonine-protein kinase Sgk1 (Homo sapiens) (O00141 whole entry): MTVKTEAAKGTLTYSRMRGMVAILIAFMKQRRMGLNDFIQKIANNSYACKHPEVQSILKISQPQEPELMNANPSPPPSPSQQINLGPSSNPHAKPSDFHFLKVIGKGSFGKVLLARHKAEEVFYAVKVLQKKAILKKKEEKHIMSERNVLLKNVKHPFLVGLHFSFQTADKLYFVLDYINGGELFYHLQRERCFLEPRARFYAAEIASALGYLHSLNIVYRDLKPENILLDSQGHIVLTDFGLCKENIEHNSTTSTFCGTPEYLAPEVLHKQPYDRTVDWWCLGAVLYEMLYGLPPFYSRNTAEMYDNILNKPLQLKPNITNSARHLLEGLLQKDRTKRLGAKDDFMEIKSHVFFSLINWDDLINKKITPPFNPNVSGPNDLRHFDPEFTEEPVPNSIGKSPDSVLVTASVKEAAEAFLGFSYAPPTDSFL
Chain of Vascular endothelial growth factor receptor 2 (Homo sapiens) (P35968 whole entry): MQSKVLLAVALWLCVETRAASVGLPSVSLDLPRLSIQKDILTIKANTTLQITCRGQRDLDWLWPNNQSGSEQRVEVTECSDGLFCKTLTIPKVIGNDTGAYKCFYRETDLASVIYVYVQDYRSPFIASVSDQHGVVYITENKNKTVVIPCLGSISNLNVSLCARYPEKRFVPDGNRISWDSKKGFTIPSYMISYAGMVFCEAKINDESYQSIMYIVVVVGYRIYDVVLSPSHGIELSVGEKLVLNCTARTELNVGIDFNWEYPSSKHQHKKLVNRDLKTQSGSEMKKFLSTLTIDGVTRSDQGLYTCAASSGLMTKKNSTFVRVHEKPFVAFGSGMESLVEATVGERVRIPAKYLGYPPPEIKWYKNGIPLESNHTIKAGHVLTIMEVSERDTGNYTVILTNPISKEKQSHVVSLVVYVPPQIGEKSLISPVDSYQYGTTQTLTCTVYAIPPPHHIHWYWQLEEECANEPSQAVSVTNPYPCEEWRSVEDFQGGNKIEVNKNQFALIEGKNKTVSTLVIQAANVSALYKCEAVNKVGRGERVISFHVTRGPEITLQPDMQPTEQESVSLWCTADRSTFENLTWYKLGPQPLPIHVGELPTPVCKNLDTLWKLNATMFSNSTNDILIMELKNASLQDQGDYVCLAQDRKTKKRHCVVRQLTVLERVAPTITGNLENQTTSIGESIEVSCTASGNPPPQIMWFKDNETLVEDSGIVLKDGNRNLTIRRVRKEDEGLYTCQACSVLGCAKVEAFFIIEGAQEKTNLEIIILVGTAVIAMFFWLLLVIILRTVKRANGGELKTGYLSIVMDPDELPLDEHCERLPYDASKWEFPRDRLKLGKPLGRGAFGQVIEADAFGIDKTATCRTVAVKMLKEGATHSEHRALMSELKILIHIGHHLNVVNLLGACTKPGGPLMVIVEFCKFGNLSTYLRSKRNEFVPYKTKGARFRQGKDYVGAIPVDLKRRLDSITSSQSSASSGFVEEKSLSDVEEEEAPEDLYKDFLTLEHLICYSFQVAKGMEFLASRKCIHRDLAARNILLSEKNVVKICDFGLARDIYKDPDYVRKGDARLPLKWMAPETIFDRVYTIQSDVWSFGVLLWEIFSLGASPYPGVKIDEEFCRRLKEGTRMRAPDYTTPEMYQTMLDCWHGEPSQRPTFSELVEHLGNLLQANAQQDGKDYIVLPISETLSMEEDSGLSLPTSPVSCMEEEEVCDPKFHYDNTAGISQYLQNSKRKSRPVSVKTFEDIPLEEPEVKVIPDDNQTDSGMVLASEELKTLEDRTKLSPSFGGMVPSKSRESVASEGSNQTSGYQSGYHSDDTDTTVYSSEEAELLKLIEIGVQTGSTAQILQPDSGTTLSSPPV
Chain of Serine/threonine-protein kinase Nek10 (Homo sapiens) (Q6ZWH5 whole entry): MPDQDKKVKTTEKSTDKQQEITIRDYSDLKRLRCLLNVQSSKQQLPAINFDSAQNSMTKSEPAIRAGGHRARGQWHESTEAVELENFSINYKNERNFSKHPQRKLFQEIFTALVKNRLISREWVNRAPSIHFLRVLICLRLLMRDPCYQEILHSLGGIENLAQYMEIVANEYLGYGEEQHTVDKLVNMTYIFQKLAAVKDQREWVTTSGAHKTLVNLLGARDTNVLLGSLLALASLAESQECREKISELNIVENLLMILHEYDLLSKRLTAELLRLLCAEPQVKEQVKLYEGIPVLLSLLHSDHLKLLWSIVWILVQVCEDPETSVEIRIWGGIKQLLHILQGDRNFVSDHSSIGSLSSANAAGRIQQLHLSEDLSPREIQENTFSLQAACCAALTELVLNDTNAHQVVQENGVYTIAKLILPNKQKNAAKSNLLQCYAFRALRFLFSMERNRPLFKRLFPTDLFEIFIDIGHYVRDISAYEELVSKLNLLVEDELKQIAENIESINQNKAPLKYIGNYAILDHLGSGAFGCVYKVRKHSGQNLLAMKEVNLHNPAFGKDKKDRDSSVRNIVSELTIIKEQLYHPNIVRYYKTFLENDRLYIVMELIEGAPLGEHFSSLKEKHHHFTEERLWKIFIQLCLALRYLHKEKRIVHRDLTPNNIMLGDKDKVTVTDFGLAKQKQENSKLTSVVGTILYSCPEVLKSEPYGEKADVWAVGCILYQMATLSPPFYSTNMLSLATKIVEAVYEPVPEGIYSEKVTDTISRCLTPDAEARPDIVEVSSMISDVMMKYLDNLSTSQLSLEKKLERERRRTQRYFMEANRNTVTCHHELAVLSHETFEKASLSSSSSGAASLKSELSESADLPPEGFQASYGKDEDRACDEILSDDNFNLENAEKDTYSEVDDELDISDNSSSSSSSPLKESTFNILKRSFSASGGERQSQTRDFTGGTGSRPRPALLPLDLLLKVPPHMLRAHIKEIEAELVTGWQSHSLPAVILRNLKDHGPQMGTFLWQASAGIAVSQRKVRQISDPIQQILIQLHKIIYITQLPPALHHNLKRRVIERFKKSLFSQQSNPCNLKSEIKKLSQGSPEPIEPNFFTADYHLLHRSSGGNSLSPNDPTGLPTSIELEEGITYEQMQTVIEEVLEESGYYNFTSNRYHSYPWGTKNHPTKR
Chain of Aurora kinase A (Homo sapiens) (O14965 whole entry): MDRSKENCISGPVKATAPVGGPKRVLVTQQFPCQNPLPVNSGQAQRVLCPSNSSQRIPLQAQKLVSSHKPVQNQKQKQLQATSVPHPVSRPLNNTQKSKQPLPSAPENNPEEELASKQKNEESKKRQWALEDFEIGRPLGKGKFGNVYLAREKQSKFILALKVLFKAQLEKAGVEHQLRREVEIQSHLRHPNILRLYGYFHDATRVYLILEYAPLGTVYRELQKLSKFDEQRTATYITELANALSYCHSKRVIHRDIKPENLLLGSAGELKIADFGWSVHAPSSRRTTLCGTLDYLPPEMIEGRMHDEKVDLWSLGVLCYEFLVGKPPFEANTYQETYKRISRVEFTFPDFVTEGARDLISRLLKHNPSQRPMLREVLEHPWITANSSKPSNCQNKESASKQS
Chain of Mitogen-activated protein kinase kinase kinase kinase 5 (Homo sapiens) (Q9Y4K4 whole entry, looked up): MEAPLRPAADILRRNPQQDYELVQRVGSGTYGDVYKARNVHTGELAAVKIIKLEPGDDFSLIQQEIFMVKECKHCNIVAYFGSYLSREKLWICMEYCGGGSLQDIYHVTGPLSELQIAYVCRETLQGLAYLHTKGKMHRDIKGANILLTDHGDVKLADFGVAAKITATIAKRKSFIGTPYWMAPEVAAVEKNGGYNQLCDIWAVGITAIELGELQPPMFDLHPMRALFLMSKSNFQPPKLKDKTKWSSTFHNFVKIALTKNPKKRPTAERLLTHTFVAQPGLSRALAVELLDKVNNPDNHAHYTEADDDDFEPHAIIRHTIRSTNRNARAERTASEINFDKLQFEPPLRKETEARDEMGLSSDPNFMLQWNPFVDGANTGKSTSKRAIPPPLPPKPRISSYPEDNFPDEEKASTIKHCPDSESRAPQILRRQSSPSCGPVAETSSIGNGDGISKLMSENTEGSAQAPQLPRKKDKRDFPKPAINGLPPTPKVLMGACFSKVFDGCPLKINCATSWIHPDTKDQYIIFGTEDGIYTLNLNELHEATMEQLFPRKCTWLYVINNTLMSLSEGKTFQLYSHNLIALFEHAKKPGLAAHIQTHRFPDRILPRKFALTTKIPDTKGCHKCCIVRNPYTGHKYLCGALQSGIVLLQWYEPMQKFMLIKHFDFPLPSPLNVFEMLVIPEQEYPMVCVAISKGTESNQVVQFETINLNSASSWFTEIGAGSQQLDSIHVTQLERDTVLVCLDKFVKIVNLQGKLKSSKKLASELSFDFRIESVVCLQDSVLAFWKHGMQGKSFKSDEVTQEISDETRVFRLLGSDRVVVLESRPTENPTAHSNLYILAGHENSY
Chain of Cyclin-dependent kinase 4 (Homo sapiens) (P11802 whole entry): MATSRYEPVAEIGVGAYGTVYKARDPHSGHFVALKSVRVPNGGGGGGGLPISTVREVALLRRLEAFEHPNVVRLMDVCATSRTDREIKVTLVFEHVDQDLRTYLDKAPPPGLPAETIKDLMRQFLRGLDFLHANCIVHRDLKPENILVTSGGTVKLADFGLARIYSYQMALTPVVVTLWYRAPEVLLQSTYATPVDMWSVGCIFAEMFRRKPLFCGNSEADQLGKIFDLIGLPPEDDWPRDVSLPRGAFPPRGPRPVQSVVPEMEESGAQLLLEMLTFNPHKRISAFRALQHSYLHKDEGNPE
Chain of Histamine H3 receptor (Homo sapiens) (Q9Y5N1 whole entry): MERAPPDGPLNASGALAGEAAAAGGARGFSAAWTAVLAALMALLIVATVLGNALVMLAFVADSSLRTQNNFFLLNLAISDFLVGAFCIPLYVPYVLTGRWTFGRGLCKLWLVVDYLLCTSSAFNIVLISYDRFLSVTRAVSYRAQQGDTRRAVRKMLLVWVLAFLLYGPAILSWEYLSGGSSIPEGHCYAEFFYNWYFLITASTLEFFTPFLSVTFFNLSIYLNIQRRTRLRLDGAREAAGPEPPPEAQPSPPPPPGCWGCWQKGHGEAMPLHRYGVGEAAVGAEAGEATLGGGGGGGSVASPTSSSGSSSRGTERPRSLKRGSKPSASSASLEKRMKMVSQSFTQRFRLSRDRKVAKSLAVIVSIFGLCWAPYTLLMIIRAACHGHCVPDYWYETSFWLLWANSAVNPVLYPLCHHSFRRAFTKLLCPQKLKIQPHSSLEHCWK

CCOCCn1cc(C(=O)Nc2ccc(-n3nc(-c4cccnc4)cc3C(F)(F)F)cn2)ccc1=O [BI 1935]
inactive: inhibition [1] 25.3% | residual activity (Renin (Homo sapiens)) 94% | residual activity ([2]; Compound concentration 0.03 uM) 86% | residual activity ([2]; Compound concentration 0.1 uM) 57% | residual activity [3] 92% | residual activity [4] 100% | residual activity [5] 96% | residual activity [6] 95% | residual activity [7] 81% | residual activity [8] 80% | residual activity [9] 93% | residual activity [10] 90% | residual activity [11] 100% | residual activity [12] 95% | residual activity [13] 100% | residual activity [14] 83% | residual activity [15] 69% | residual activity [16] 95% | residual activity [17] 82% | residual activity [18] 84% | inhibition [19] -6.39% | residual activity [20] 94% | residual activity [21] 87% | residual activity [22] 98% | residual activity [23] 85% | residual activity [24] 100% | residual activity [25] 100% | residual activity [26] 85% | residual activity [27] 100% | residual activity [28] 100% | residual activity [29] 69% | residual activity [30] 84% | residual activity [31] 81%
active: residual activity ([2]; Compound concentration 0.3 uM) 27% | residual activity ([2]; Compound concentration 1.0 uM) 13% | residual activity ([2]; Compound concentration 3.0 uM) 2% | residual activity ([2]; Compound concentration 10.0 uM) 4%
